Assay [1] concerns p-JNK1/2. The assay can be described thus: Immunoblot of MKK7-JNK pathway in MDA-MB-231 cells. Type of assay: cell-based. The settings on record: MDA-MB-231, anisomycin, 16 h, up to 10 μM. The protocol:
Figure S1. Effects of the indicated compounds on the MKK7 -JNK pathway in MDA -MB-231 cells after 16 h treatment. MDA -MB-231 cells were pretreated with anisomycin for 45 min prior to the addition of the indicated compounds f or 16 h. Representative data from two independent […]
Anisomycin (10 μg/mL) - + + +
(1 picture or pasted object on this page, not shown here) […]
(§1) Immunoblotting and antibodies
Cells were lysed in RIPA buffer (150 mM NaCl, 1.0% IGEPAL® CA-630, 0.5% sodium deoxycholate, 0.1% SDS, 50 mM Tris, pH 8.0) (Sigma, Cat# R0278) with protease inhibitor and phosphatase inhibitor (Roche). The protein concentrations were measured by BCA analysis (Thermo Fisher Scientific, Cat # PI23225). Equal amounts of protein were resolved by 4-12% Bis-Tris gels (Life Technologies), and then transferred to the Immuno-Blot PVDF membrane (BioRad, cat # 1620177). The membranes were blocked by Intercept blocking buffer (LI-COR, cat #927-60001) for 1 hour at room temperature. Proteins were probed with appropriate primary antibodies at 4 ℃ overnight and then with IRDye®800-labeled goat anti-rabbit IgG (LICOR Biosciences, cat […]
or IRDye 680RD goat anti-Mouse IgG (LICOR Biosciences , Cat # 926-68070) secondary antibodies at room temperature for 1 hour. The membranes were detected on Odyssey CLx system.
Antibodies used in this study include anti-following proteins: EGFR (Cell signaling Technology, […]
Akt (Cell signaling Technology, # 9272L, 1:1000), p-Akt (Cell Signaling Technology, #4060S,
Background: Immunoblotting shows a protein as a band on a membrane.

In assay [2] the target is T1, MKK7 (Homo sapiens, UniProt O14733).
T1 construct: purchased DiscoverX
T1 sequence (O14733 1-419): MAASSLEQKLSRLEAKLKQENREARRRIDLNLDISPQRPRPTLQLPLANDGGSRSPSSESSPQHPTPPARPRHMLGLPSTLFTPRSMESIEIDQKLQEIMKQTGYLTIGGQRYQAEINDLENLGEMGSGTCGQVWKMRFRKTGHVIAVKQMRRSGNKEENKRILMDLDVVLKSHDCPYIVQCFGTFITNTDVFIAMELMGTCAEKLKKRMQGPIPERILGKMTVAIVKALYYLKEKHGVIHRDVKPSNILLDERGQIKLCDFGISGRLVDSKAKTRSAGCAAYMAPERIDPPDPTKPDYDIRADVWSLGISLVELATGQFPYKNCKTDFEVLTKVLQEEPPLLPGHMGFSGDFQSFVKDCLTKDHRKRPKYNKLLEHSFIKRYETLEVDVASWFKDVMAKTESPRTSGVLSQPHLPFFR
The assay can be described thus: MKK7 binding, KdELECT assays (DiscoverX). The settings on record: for fold loss of potency: vs ZNL-8162. An excerpt: Figure 2 ZNL-8162 is a molecular bident for MKK7. (A) Compound structures for MKK7-targeting molecular bident (ZNL-8162) and its relatives lacking one or both cysteine-reactive groups. (B) Covalent modeling for ZNL-8162 engagement of MKK7(PDB: 6YG3). (C) MS/MS spectrum of ZNL-8162 covalently modifying Cys218 and Cys276 of MKK7. Red and yellow circles indicate ions of type y for sequences marked (1) and (2), respectively. Blue circles indicate ions of b for sequence (1). *, carbamidomethyl cysteine, Δ, oxidized methionine. (D) MKK7 binding data were obtained from KdELECT assays (DiscoverX). Data are presented as mean ± s.d. of n = 2 biologically independent samples.
Table S2. […]

Assay [3] has as its system T2, EGFR.
T2 construct: expressed in transfected cells; host or cells: Ba/F3 (murine pro-B cells transduced with an EGFR mutant expression vector)
The assay can be described thus: Cellular target engagement assays (competitive pulldown). The format is cell-based. Conditions: 1 μM probe. The procedure:
Figure 4 ZNL-0056 covalently engages Cys775 and Cys797 in EGFR Ba/F3 cells. (A) Carton of competition EGFR pulldown strategy to test covalent EGFR engagement in cells. (B) Competitive pulldown assay in EGFR^L858R Ba/F3 cells treated with ZNL-0056 at the indicated concentrations for 6 h. Cell lysates were incubated with bio-osimertinib. (C) Competitive pulldown assay in EGFR^L858R Ba/F3 cells treated with ZNL-0056 at the indicated concentrations for 6 h. Cell lysates were incubated with bio-ZNL-0013, which competes for the binding pocket of the target kinase. (D) Competitive pulldown assay in EGFR^L858R/C797S Ba/F3 cells treated with ZNL-0056 at the indicated concentrations for 6 h. Cell lysates were incubated with bio-ZNL-0013, which competes for the binding pocket of the target kinase. Western blotting showing the pulldown (PD) or input (total lysate) of EGFR. […]
(§2) treatment. Cell viability was determined by using CellTiter-Glo (Promega #G7571) according to the manufacturer’s instructions, measuring luminescence using an Envision plate-reader (PerkinElmer Inc.). […]
(§3) After 6 hours treatment, cells were pelleted, washed with PBS once and lysed with IP lysis buffer (25mMTris-HCl pH 7.4, 150mM NaCl, 1 mM EDTA, 1% NP-40 and 5% glycerol) (Thermo Fisher Scientific, Cat#87788) containing protease/phosphatase inhibitor cocktail (Roche). The protein concentrations were measured by BCA analysis (Pierce). […]

Assay [4] concerns EGFR^L858R Ba/F3 cells. The assay can be described thus: Antiproliferation assay (CellTiter-Glo). Type of assay: cell-based. Conditions: vs ZNL-0056 and ZNL-0091. The protocol: (§4) Figure S6 Dose-response curves for the indicated compounds in EGFRL858R, EGFRL858R/C797S, and EGFRL858R/C775S Ba/F3 cells following 72 h of treatment. Cell viability was assessed with CellTiter-Glo.
(§5) Data are presented as the mean ± SEM (n = 4). Representative data from three independent experiments
(§6) (1 picture or pasted object on this page, not shown here)
(§7) For infection of Ba/F3 cells, 2.5 mL of viral supernatant and 8 μg/mL polybrene was added to 2.5 million cells per well in six-well plates. The plate was centrifuged at 2500 rpm for 90 minutes at 37 °C for the spin infection. Then, virus-containing medium was removed 48 hours later and successfully infected cells were selected with the addition of 1 μg/mL puromycin to the medium.
(§8) After 3 days, cells were transferred into the fresh medium without IL-3 and puromycin. IL-3-independent transformed cells were maintained in RPMI medium 1640 supplemented with 10%
(§9) FBS. Expression of EGFR was examined by Western blot.
as §1
(§10) Cells were lysed in RIPA buffer (150 mM NaCl, 1.0% IGEPAL® CA-630, 0.5% sodium deoxycholate, 0.1% SDS, 50 mM Tris, pH 8.0) (Sigma, Cat# R0278) with protease inhibitor and phosphatase inhibitor (Roche). The protein concentrations were measured by BCA analysis (Thermo Fisher Scientific, Cat # PI23225). […]
(§11) or IRDye 680RD goat anti-Mouse IgG (LICOR Biosciences , Cat # 926-68070) secondary antibodies at room temperature for 1 hour. The membranes were detected on Odyssey CLx system. […]
as §2, §3

For assay [5], the system named is EGFR^L858R/C775S Ba/F3 cells. The assay can be described thus: Antiproliferation assay (CellTiter-Glo). The format is cell-based. The settings on record: vs EGFR^L858R Ba/F3. The protocol:
as §4, §5, §6, §7, §8, §9, §1, §10, §11, §2, §3
(In ATP-based viability assays light output follows the ATP content of the culture.)

The mark [6] stands for this setting: Figure 2D, read-out: IC50 against MKK7.

Where two headings read alike, the source gives them in different places.

As for `C=CC(=O)Nc1ccccc1Nc1nc(NC2CCN(C(=O)CC)C2)ncc1Cl` (centres unmarked) [ZNL-8163], the “inhibition of p-JNK1/2” value in assay [1] is reported as “less potency”. Further, in assay [2] (setting [6]), the concentration for half-maximal inhibition (IC50) (usually the point on the concentration scale where inhibition reaches its midpoint) stood at 0.437 µM. In assay [2], the “fold loss of potency” value is on record as ~3 fold.
For the compound `C=CC(=O)Nc1cc(C(=O)Nc2nc3cccc(C)c3n2[C@@H]2CCCCN(C(=O)CCOCCOCCOCCOCCNC(=O)CCCC[C@@H]3SC[C@@H]4NC(=O)N[C@@H]43)C2)cs1` [bio-ZNL-0013], in assay [3], the “enrichment of EGFR from cell lysate under denaturing conditions” value is “significant enrichment”.
Regarding `C=CC(=O)Nc1cc(C(=O)Nc2nc3cccc(C)c3n2[C@@H]2CCCCN(C(C)=O)C2)cs1` [ZNL-0013], the “cell growth inhibition activity, fold weaker” value in assay [4] is recorded as “about 5 fold”. Also, the “potency loss (shift) in the EGFR^L858R/C775S mutant” value in assay [5] was determined as 20 fold.
For the compound `CCC(=O)Nc1ccccc1Nc1nc(NC2CCN(C(=O)CC)C2)ncc1Cl` (centres unmarked) [ZNL-8166], in assay [1], the “inhibition of p-JNK1/2” value was “did not exhibit any inhibition”. Further, the IC50 in assay [2] (setting [6]) was > 10 µM.
On to `C=CC(=O)Nc1ccccc1Nc1nc(NC2CCN(C(=O)C=C)C2)ncc1Cl` (centres unmarked) [ZNL-8162], for which the “inhibition of p-JNK1/2” value in assay [1] is “strong inhibition”. For the same compound, the IC50 in assay [2] (setting [6]) was 0.133 µM; in assay [2] (from ZNL-8163 and ZNL-8165 IC50 data, read-out: IC50 estimated from single warhead compounds assuming independent contributions from both covalent bonds), ~0.182 µM.
Consider `C=CC(=O)N1CCC(Nc2ncc(Cl)c(Nc3ccccc3NC(=O)CC)n2)C1` (centres unmarked) [ZNL-8165], for which the “inhibition of p-JNK1/2” value in assay [1] is reported as “less potency”. The IC50 in assay [2] (setting [6]) turned out to be 0.313 µM. In addition, the “fold loss of potency” value in assay [2] was ~3 fold.

Source of the values: paper PMC11212140, “Molecular Bidents with Two Electrophilic Warheads as a New Pharmacological Modality” (ACS Central Science, 2024).
